Literature values as cited in patent US7834038B2, “Methods for preparing nonpeptidic oligomers from amino acids” (New York University, priority 2005, dated 2010).
Entries after “also recorded” stand apart in the source; their conditions may differ.

Molecular target: HIV-1 protease (Human immunodeficiency virus type 1 group M subtype B, UniProt P04585)
Details: known inhibitors, statement in words

Row | Compound | inhibition of HIV-1 protease
1 | CC(C)[C@H](NC(=O)OCc1ccccc1)C(=O)N[C@@H](Cc1ccccc1)[C@@H](O)[C@H](Cc1ccccc1)NC(=O)[C@H](NC(=O)OCc1ccccc1)C(C)C [A-74704] | very high affinities; also recorded: powerful inhibitor
2 | O=C(N[C@H]1c2ccccc2C[C@H]1O)[C@H](Cc1ccccc1)CC(O)C[C@@H](Cc1ccccc1)C(=O)N[C@H]1c2ccccc2C[C@H]1O [L-700,417] | very high affinities
